In this test the target is Sigma non-opioid intracellular receptor 1 (Cavia porcellus, UniProt Q60492). The test is described as follows: Binding Affinity Assay. How it is done:
An appropriate amount of homogenization buffer was added to the prepared membrane, and was dispersed into a suspension using a homogenizer, protein concentration was measured to be 4 mg/ml. 100 micrograms of protein were added to each well of a 96-well plate, with a volume of 90 μl. […] [3H]-(+)-pentazocine (Perkin-Elmer, Cat #NET1056250UC) was added to each well (final concentration of 10 nM). The 96-well plate was incubated in a constant temperature water bath (25° C., 180 minutes). […] After washing, the samples were dried in a 37° C. oven.
Chain of Sigma non-opioid intracellular receptor 1 (Q60492 whole entry): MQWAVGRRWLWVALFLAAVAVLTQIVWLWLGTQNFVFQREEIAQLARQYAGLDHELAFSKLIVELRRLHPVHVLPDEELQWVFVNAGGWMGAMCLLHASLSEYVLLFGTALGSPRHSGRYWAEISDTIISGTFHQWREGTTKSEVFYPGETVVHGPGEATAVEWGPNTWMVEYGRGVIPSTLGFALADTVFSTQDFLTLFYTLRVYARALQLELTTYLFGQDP
One may read the Ki as a measure of affinity in units of concentration, obtained from inhibition or displacement. Low readings indicate tighter binding, high ones weaker binding. Take `Fc1ccc(-c2cc(COCCN3CCOCC3)on2)cc1F` [US20240317745, Compound 1]: the Ki is 80.3 nM.

For `OC1CCN(Cc2cc(-c3ccc(F)c(F)c3)no2)CC1` [US20240317745, Compound 37], the Ki turned out to be 308 nM.

`OC1CCN(CCOCc2cc(-c3ccc(Cl)c(Cl)c3)no2)CC1` [US20240317745, Compound 65]: the affinity, expressed as Ki, was 39.6 nM. This Ki is about 7.8-fold lower than that of the molecule before.

On to `Clc1ccc(-c2noc(COCCN3CCOCC3)c2Br)cc1Cl` [US20240317745, Compound 74], for which the Ki was found to be 84.4 nM.
